# Values of other authors as cited in patent US11877998B2, “Supplement composition” (H & H SCIENCE, LLC, priority 2017, dated 2024).
# Columns and labels:
# [1] = system: retinol-binding proteins (RBPs); settings: acne patients, oral, after four weeks
# hair growth = settings: men taking supplements
# nonmelanoma skin cancer = settings: oral, high risk group
Molecule,serum levels of retinol-binding proteins (RBPs) [1],other results
vitamin A [oral vitamin A],not observed,
vitamin E,,hair growth versus placebo (hair growth): grew more hair
"O=C(O)c1cccnc1 [oral niacin, niacin]",,reduction of nonmelanoma skin cancer (nonmelanoma skin cancer): by a quarter
[Zn] [zinc],not observed,
